According to the pKa sets of Baltruschat and Czodrowski (2020):

Details: acidic group

SMILES | pKa
C[N+](C)(C)CC(O)CC(=O)O (centres undefined) | 3.8
C[NH+](C)Cc1c(O)c(O)c(O)c(C[NH+](C)C)c1C(=O)[O-] | 6.95
N#CC(c1ccc(Cl)cc1)c1ccc([N+](=O)[O-])cc1 (centres undefined) | 10.7
C(C[NH2+]CCc1nnn[nH]1)[NH2+]CCc1nnn[n-]1 | 4.09
Nc1ncccc1O | 9.5
CC(=O)c1ccc(S)cc1 | 5.33
CC1=NN(c2ccccc2)C(=O)/C1=C\c1c(C)nn(-c2ccccc2)c1O | 13.8
N#Cc1ccc(CC(C#N)C#N)cc1 | 11
Cc1ccccc1/C=C/C(=O)O | 4.5
Oc1cnc2ccccc2[nH+]1 | -1.37
C[N+](C)(C)CCCc1cccc(O)c1 | 9.64
CC(=O)C(C)C(C)=O | 10.8
CCC(C)(O)c1cnc(CC(C)C)c(O)[n+]1[O-] (centres undefined) | 5.02
[O-]/C(O)=C1\SCc2ccccc21 | 12.8
O=[Se](O)c1ccc2ccccc2c1 | 4.67
CC(=O)Oc1cccc2cccc(O)c12 | 9.69
O=c1[nH]c(=S)c2[nH]cnc2[nH]1 | 6.2
OCCCl | 14.4
O=C(O)C12CC3CC(CC(C3)C1)C2 | 4.95
O=C([O-])/C=C/C(=O)CC(=O)CC(=O)[O-] | 8.4
Cc1cccc2ccc(O)cc12 | 9.42
Cc1c(C)c(O)c(C)c(C)c1[O-] | 12.8
N#CCC[n+]1ccc(C(N)=O)cc1.[Br-] | 13.3
S=C1NC(=S)C(c2ccccc2)N1 (centres undefined) | 8.15
N#CC(C#N)=NNc1ccc([N+](=O)[O-])cc1Cl | 4.15
NC(=O)N/N=C/c1ncnc2nc[nH]c12 | 9.1
O=C(O)[C@H]1O[C@@H]1C(=O)O | 1.92

SMILES | pKa
O=C(O)c1cccc[n+]1[O-] | 3.54
O=C(NO)c1ccccc1O | 7.39
COc1ccc(O)c(C)c1 | 10.2
N#CS | 0.85
C[n+]1cccc2cc(O)ccc21 | 7.15
O=C(O)/C=C/c1ccccc1O | 4.56
CC(C)CC(N)C(N)=O (centres undefined) | 8
CCC(=O)c1nc(C(=O)O)cs1 | 3.7
CC(C)=CCC1=C(O)[C@](O)(CC=C(C)C)C(=O)C(C(=O)CC(C)C)=C1O | 4.22
CCN(CC)Cc1ccccc1O | 10.8
N#Cc1ccccc1-c1nnn[nH]1 | 3.55
CC(=O)CC(=S)Nc1cccc(C)c1 | 7.56
O=S(=O)(O)c1cccc(C(F)(F)F)c1 | -6.93
[O-][n+]1cnc2[nH]cnc2c1NCc1ccccc1 | 8.22
Oc1cccc[nH+]1 | 0.75
CC[NH2+]CCCC(=O)O | 3.92
O=c1cc(-c2ccc(O)cc2)ss1 | 8.27
COc1cccc(C=O)c1O | 7.91
CC(c1cccc(C(F)(F)F)c1)[N+](=O)[O-] (centres undefined) | 6.96
Nc1c2ccccc2[nH+]c2cc(O)ccc12 | 6.63
Cc1c(O)n[nH]c1-c1ccccc1 | 7.6
O=C(O)[C@H](O)c1cccc([N+](=O)[O-])c1 | 3.03
Cc1cc(-c2c(C)noc2O)on1 | 3.2
Cc1nc2nc([O-])[nH]c(=O)c2[nH]1 | 9.7
COc1cccc(-c2nnn[nH]2)c1 | 3.91
O=C(O)c1cnc(Br)s1 | 2.96
N#CC(Cc1ccccc1)C(=O)O (centres undefined) | 2.24

SMILES | pKa
Cc1ccc(C(=S)Nc2cccc(F)c2)cc1 | 10.6
COCC(=O)NN | 12.1
Oc1cc(-c2ccccc2)nn1-c1ccccc1 | 12.2
O=C([O-])C(CO)NCc1ccccc1O (centres undefined) | 10.4
CCOc1ccc(C(=O)O)c(C)c1 | 4.54
COc1cccc(S)c1 | 6.39
[NH3+]CCCCC(=O)O | 4.26
[NH3+]CCCCCCCCCC(=O)O | 4.57
CN(C)c1ccc(NC=S)cc1 | 12
CC/C(=N/O)C(C)=O | 9.38
CC1CC(C(=O)O)=[N+]([O-])C1(C)C (centres undefined) | 2.85
Nc1ccc(S(=O)(=O)Nc2nccs2)cc1/N=N/c1ccccc1 | 5.85
CCC[NH2+]CC(=O)O | 2.31
Cc1cc(O)ccc1[N+](=O)[O-] | 7.65
CN(C)c1ncnc2[nH]ncc12 | 11
CC(O)=C(C#N)C#N | 1
Nc1ncc([N+](=O)[O-])cn1 | 14.7
O=C(O)CSCCc1ccccc1 | 3.8
O=C(O)c1ccccc1/N=C/C=C/c1ccccc1 | 6.12
O=C1NC(C(=O)O)CC1O (centres undefined) | 3.8
Nc1ccc(S(=O)(=O)Nc2ccc(S(N)(=O)=O)cc2)cc1 | 7.85
O=S(Cc1ccccc1)c1ncn[nH]1 (centres undefined) | 7.38
COc1ccc(O)cc1[N+](=O)[O-] | 8.68
O=C(O)CNC(=O)c1cccc(O)c1O | 3.5
Cc1ccc(C(=O)[O-])c(O)c1 | 13.8

Same assay, conditions: basic group

SMILES | pKa
Cc1cnc2c(c1)c(C)cc1c(C)c(C)cnc12 | 6.07
N#CCN1CCCCC1 | 4.55
Nc1ccc2cc3c(ccc4ccccc43)nc2c1 | 7.42
Nc1ccncc1 | 9.16
NCCCc1ccccc1O | 9.51
CCOC(=O)c1cnc(N)s1 | 3.04
Cc1cncc(C)n1 | 2.11
c1coc(CNc2ncnc3[nH]ncc23)c1 | 4.01
C=C(C)C(=O)OCCNC(C)C | 9.13
CN(C)CCC/N=C(\c1ccccc1)c1ccccc1-c1ccccc1 | 9.2
CCCCSCCN | 8.37
CN(C)N | 7.16
CC(C)(C)CC(C)(C)N | 10.8
C[NH+](C)CCCNc1c([N+](=O)[O-])cnc2ccccc12 | 4.43
C[NH+](C)CCNc1ccnc2cccc([N+](=O)[O-])c12 | 5.77
CN1[C@@H]2CC[C@H]1C[C@H](O)C2 | 10.3
O=c1[nH]c(=S)c2[nH]cnc2[nH]1 | 0.9
CN1CSC[C@H]1C(=O)[O-] | 6.6
CCCCCNCCCCC | 11.2
CN(C)c1cccc2ccccc12 | 4.83
c1ccnnc1 | 2.33
CNc1ccccc1C | 4.59
OCCN(CCc1nnn[n-]1)CCc1nnn[n-]1 | 8.9
CCNc1cccc2ccccc12 | 4.19

SMILES | pKa
CCCNCc1ccccc1 | 9.62
c1ccc(-c2ccc3nccn3n2)cc1 | 4.71
CC(C)N1CCCC1 | 11.2
c1ccc(C(CCN2CCOCC2)c2ccccc2)cc1 | 7.25
S=C1NC(=S)C(c2ccccc2)N1 (centres undefined) | -3.16
CC1CCN(C)C(C)(C)C1 (centres undefined) | 10.2
Nc1ccc(Sc2ccc(N)cc2)cc1 | 4.25
N#CC(C#N)=NNc1ccc([N+](=O)[O-])cc1Cl | -0.62
CCCCN(CCCC)c1ccc([N+](=O)[O-])cc1 | 1.08
CN(C)CC(CSC#N)SC#N (centres undefined) | 6.1
Cn1nc(-c2ccccc2)cc/c1=N\CCN1CCOCC1 | 10.2
NC(=O)N/N=C/c1ncnc2nc[nH]c12 | 2.1
O=C([O-])c1cc(-c2ccccc2)nnc1NCC[NH+]1CCOCC1 | 3.33
CCC(O)CN(CC)CCO (centres undefined) | 9.1
N#Cc1ccc(CN)cc1 | 8.72
CC1=Nc2ccccc2N=C(C)C1 | 3.85
CC(C=C(c1cccs1)c1cccs1)N1CCCCC1C (centres undefined) | 7.46
CCCC[NH2+]CC/C(N)=N/O | 3.75
CCN(CC)CCCC(C)Nc1ccnc2ccccc12 (centres undefined) | 10.2
Nc1ccc2[nH]c(=O)[nH]c2c1 | 5
CN(C)c1ncc(-c2ccccc2)s1 | 4.89
CCN(CC)CCCCCCNc1c2ccc(Cl)cc2nc2ccc(OC)cc12 | 10.3
Cc1[nH]cnc1CSCCNC(=[NH2+])NCCCc1c[nH]c[nH+]1 | 6.41
CN1CC[C@]23c4c5ccc(O[C@@H]6O[C@H](C(=O)[O-])[C@@H](O)[C@H](O)[C@H]6O)c4O[C@H]2[C@@H](O)C=C[C@H]3[C@H]1C5 | 8.1

SMILES | pKa
[NH3+][C@@H](Cc1c[nH]cn1)C(=O)NCC(=O)[O-] | 5.8
CNC(C)Cc1ccccc1 (centres undefined) | 9.87
OCCCNc1nc(NCCCO)nc(NCCCO)n1 | 5.48
CCOC(=O)c1ccc(N)cc1 | 2.58
Nc1ccc2c(c1)Cc1c(O)cccc1-2 | 4.63
CC(O)CN(CCN1CCOCC1)CC(C)O (centres undefined) | 7.9
CCN(CC)Cc1ccccc1O | 8.81
Nc1cccc([NH3+])c1 | 2.46
Cc1nnc2c(c1C)CCC2 | 5.36
CNc1cccnc1 | 6.41
N#CCN | 5.37
CN(C)CCSCC[NH+](C)C | 8
Clc1cc2cccnc2c2ncccc12 | 4.22
S=C(/N=N/c1ccccc1)NNc1ccccc1 | 4.64
CC1ONCc2ccccc21 (centres undefined) | 3.6
[O-][n+]1cnc2[nH]cnc2c1NCc1ccccc1 | 2.66
Nc1ccc2nnccc2c1 | 5.04
Nc1nnc(-c2ccccc2)s1 | 2.9
C(CNCCc1nnn[n-]1)NCCc1nnn[n-]1 | 9.33
OC[C@@H]1CCN2CC[C@H](O)[C@H]12 | 10.2
CCC/C=C1\CCCN1C | 11.9
CC(C)NCCC#N | 8
COC(=O)C(C)(C)c1c[nH]c(CO)n1 | 6.18
CCc1c(C)nn(C)c1O | 3.5

SMILES | pKa
Cc1ccc(S(=O)(=O)[N-]CCC(=N)N(C)C)cc1 | 11.4
O=C([O-])c1ccc2ccccc2n1 | 4.97
O=C([O-])C(CO)NCc1ccccc1O (centres undefined) | 8.22
COc1ccc2nc3ccccc3cc2c1 | 3.82
CN=C(N(C)C)N(C)C | 13.8
c1ccc(-n2cccn2)[nH+]c1 | -4.8
NCC(=O)C[NH3+] | 6.89
CC(C)(C)C1=CC(=C2C=CC=CC=C2)C=C(C(C)(C)C)C1=O | 4.48
CCCN(CCC)CC(=O)Nc1c(C)cccc1C | 7.68
CCCN(CCC)CCC | 10.5
CN(C)c1ncnc2[nH]ncc12 | 4.53
[NH3+]CCC(=O)NC(Cc1c[nH]cn1)C(=O)[O-] (centres undefined) | 7.08
CCOc1cccc(C(=O)N[C@@H]2C[C@H]3CC[C@@H](C2)N3Cc2ccccc2)c1OC | 8.78
O=C([O-])c1cc2cc(Cn3ccnc3)ccc2o1 | 7.17
CC(CC(O)(c1ccccc1)c1ccccc1)N1CCCCC1 (centres undefined) | 8.62
Cc1ccccc1C(=NCCCN(C)C)c1ccccc1C | 8.7
CC(C=C(c1cccs1)c1cccs1)N1CCCCCCC1 (centres undefined) | 7.52
c1ccc2nc3ccc4ccccc4c3cc2c1 | 4.39
OCCNc1nc(NCCO)nc(NCCO)n1 | 5.19
CN(C)c1ccc(/N=N/c2cccc[nH+]2)cc1 | 2
Cc1ccc(N)cc1Cl | 4.05
c1ccc(-c2ccc3ncc(C[NH+]4CCOCC4)n3n2)cc1 | 2.91
O=C([O-])CSc1nc2cc3c(cc2[nH]1)CCCC3 | 5.2
